Source: publication PMC10894229, “Novel antimicrobial peptides against Cutibacterium acnes designed by deep learning” (Scientific Reports, 2024)
Like-named read-outs stand apart in the source and are kept apart here.

Test system: C. acnes (BNCC 336649)
Settings: for Concentration with antimicrobial activity >50%: C. acnes; for Concentration with antimicrobial activity >50% / Category of in vitro test antimicrobial activity against C. acnes: supplementary Table 5; for Antimicrobial activity > 50% against C. acnes: broth microdilution, 48 h, OD 630 nm
Procedure: The strain of C. acnes (BNCC 336649) was cultured in Wilkins-Chalgren Anaerobe Broth (QingDao RiShui Bio-technologies, 11071) at 37 °C under an anaerobic atmosphere performed by a Labiophy HL-B automatic hypoxic workstation (Dalian, Liaoning Province, Labiophy HL-B), inflated with a gas mix of 15% carbon dioxide, 83% nitrogen, and 2% hydrogen.
Logarithmic phase growth bacteria were used for antimicrobial testing.
To determine the MIC values, the broth microdilution method was used. […] Briefly, peptide samples were prepared as a stock solution in water and then diluted. 180 μL of the bacterial suspension (10^7 CFU/mL) and 20 μL of the tested sample were added together into 96-Well Deep Well Plates and incubated 24 h for E. coli and S. aureus or 48 h for C. acnes and C. albicans. For each test, two columns of the plate were kept for sterility control (broth only) and growth control (broth with bacterial inoculums, no antibiotics). The optical density of cultures was measured at 630 nm by a microplate reader (SYNERGY-H1, BioTek, USA) to estimate bacterial growth. All experiments were conducted in triplicate. We used ciprofloxacin (CPFX) as the antibiotic control for antimicrobial testing.

KIAKRLAKKILNAI [AMP-10]
Concentration with antimicrobial activity >50%: 12.5 µg/mL | Antimicrobial activity > 50% against C. acnes (at 25 µg/mL): Inhibit (A peptide was deemed to have antimicrobial activity if C. acnes growth was inhibited by more than 50% at a given concentration) | Antimicrobial activity > 50% against C. acnes (at 50 µg/mL): Inhibit (A peptide was deemed to have antimicrobial activity if C. acnes growth was inhibited by more than 50% at a given concentration) | Antimicrobial activity > 50% against C. acnes (at 100 µg/mL): Inhibit (A peptide was deemed to have antimicrobial activity if C. acnes growth was inhibited by more than 50% at a given concentration) | Category of in vitro test antimicrobial activity against C. acnes: Strong AMP

KIFWRVAKSLFKSY [AMP-30]
Concentration with antimicrobial activity >50%: 100 µg/mL | Antimicrobial activity > 50% against C. acnes (at 25 µg/mL): No (A peptide was deemed to have antimicrobial activity if C. acnes growth was inhibited by more than 50% at a given concentration) | Antimicrobial activity > 50% against C. acnes (at 50 µg/mL): No (A peptide was deemed to have antimicrobial activity if C. acnes growth was inhibited by more than 50% at a given concentration) | Antimicrobial activity > 50% against C. acnes (at 100 µg/mL): Inhibit (A peptide was deemed to have antimicrobial activity if C. acnes growth was inhibited by more than 50% at a given concentration) | Category of in vitro test antimicrobial activity against C. acnes: Weak AMP

KKLAGLAKKWWKPLR [AMP-22]
Antimicrobial activity > 50% against C. acnes (at 25 µg/mL): No (A peptide was deemed to have antimicrobial activity if C. acnes growth was inhibited by more than 50% at a given concentration) | Antimicrobial activity > 50% against C. acnes (at 50 µg/mL): Inhibit (A peptide was deemed to have antimicrobial activity if C. acnes growth was inhibited by more than 50% at a given concentration) | Antimicrobial activity > 50% against C. acnes (at 100 µg/mL): Inhibit (A peptide was deemed to have antimicrobial activity if C. acnes growth was inhibited by more than 50% at a given concentration) | Category of in vitro test antimicrobial activity against C. acnes: Medium AMP

KKLAGLAWKALRKAK [AMP-6]
Concentration with antimicrobial activity >50%: 100 µg/mL | Antimicrobial activity > 50% against C. acnes (at 25 µg/mL): No (A peptide was deemed to have antimicrobial activity if C. acnes growth was inhibited by more than 50% at a given concentration) | Antimicrobial activity > 50% against C. acnes (at 50 µg/mL): No (A peptide was deemed to have antimicrobial activity if C. acnes growth was inhibited by more than 50% at a given concentration) | Antimicrobial activity > 50% against C. acnes (at 100 µg/mL): Inhibit (A peptide was deemed to have antimicrobial activity if C. acnes growth was inhibited by more than 50% at a given concentration) | Category of in vitro test antimicrobial activity against C. acnes: Weak AMP

KLVKRVLKKLRKLF [AMP-8]
Antimicrobial activity > 50% against C. acnes (at 25 µg/mL): Inhibit (A peptide was deemed to have antimicrobial activity if C. acnes growth was inhibited by more than 50% at a given concentration) | Antimicrobial activity > 50% against C. acnes (at 50 µg/mL): Inhibit (A peptide was deemed to have antimicrobial activity if C. acnes growth was inhibited by more than 50% at a given concentration) | Antimicrobial activity > 50% against C. acnes (at 100 µg/mL): Inhibit (A peptide was deemed to have antimicrobial activity if C. acnes growth was inhibited by more than 50% at a given concentration) | Category of in vitro test antimicrobial activity against C. acnes: Strong AMP

KRIGSILGRWLHLAK [AMP-2]
Concentration with antimicrobial activity >50%: 25 µg/mL | Antimicrobial activity > 50% against C. acnes (at 25 µg/mL): Inhibit (A peptide was deemed to have antimicrobial activity if C. acnes growth was inhibited by more than 50% at a given concentration) | Antimicrobial activity > 50% against C. acnes (at 50 µg/mL): Inhibit (A peptide was deemed to have antimicrobial activity if C. acnes growth was inhibited by more than 50% at a given concentration) | Antimicrobial activity > 50% against C. acnes (at 100 µg/mL): Inhibit (A peptide was deemed to have antimicrobial activity if C. acnes growth was inhibited by more than 50% at a given concentration) | Category of in vitro test antimicrobial activity against C. acnes: Medium AMP

KRLIKWLNVAKKVV [AMP-3]
Concentration with antimicrobial activity >50%: 100 µg/mL | Antimicrobial activity > 50% against C. acnes (at 25 µg/mL): No (A peptide was deemed to have antimicrobial activity if C. acnes growth was inhibited by more than 50% at a given concentration) | Antimicrobial activity > 50% against C. acnes (at 50 µg/mL): No (A peptide was deemed to have antimicrobial activity if C. acnes growth was inhibited by more than 50% at a given concentration) | Antimicrobial activity > 50% against C. acnes (at 100 µg/mL): Inhibit (A peptide was deemed to have antimicrobial activity if C. acnes growth was inhibited by more than 50% at a given concentration) | Category of in vitro test antimicrobial activity against C. acnes: Weak AMP

LLSLIRRTVARLKKA [AMP-18]
Concentration with antimicrobial activity >50%: 25 µg/mL | Antimicrobial activity > 50% against C. acnes (at 25 µg/mL): Inhibit (A peptide was deemed to have antimicrobial activity if C. acnes growth was inhibited by more than 50% at a given concentration) | Antimicrobial activity > 50% against C. acnes (at 50 µg/mL): Inhibit (A peptide was deemed to have antimicrobial activity if C. acnes growth was inhibited by more than 50% at a given concentration) | Antimicrobial activity > 50% against C. acnes (at 100 µg/mL): Inhibit (A peptide was deemed to have antimicrobial activity if C. acnes growth was inhibited by more than 50% at a given concentration) | Category of in vitro test antimicrobial activity against C. acnes: Medium AMP

LQLLKQFRKVLKKLS [AMP-13]
Concentration with antimicrobial activity >50%: 25 µg/mL | Antimicrobial activity > 50% against C. acnes (at 25 µg/mL): Inhibit (A peptide was deemed to have antimicrobial activity if C. acnes growth was inhibited by more than 50% at a given concentration) | Antimicrobial activity > 50% against C. acnes (at 50 µg/mL): Inhibit (A peptide was deemed to have antimicrobial activity if C. acnes growth was inhibited by more than 50% at a given concentration) | Antimicrobial activity > 50% against C. acnes (at 100 µg/mL): Inhibit (A peptide was deemed to have antimicrobial activity if C. acnes growth was inhibited by more than 50% at a given concentration) | Category of in vitro test antimicrobial activity against C. acnes: Medium AMP

NRWLKAAKVAAKVI [AMP-36]
Concentration with antimicrobial activity >50%: no | Antimicrobial activity > 50% against C. acnes (at 25 µg/mL): No (A peptide was deemed to have antimicrobial activity if C. acnes growth was inhibited by more than 50% at a given concentration) | Antimicrobial activity > 50% against C. acnes (at 50 µg/mL): No (A peptide was deemed to have antimicrobial activity if C. acnes growth was inhibited by more than 50% at a given concentration) | Antimicrobial activity > 50% against C. acnes (at 100 µg/mL): No (A peptide was deemed to have antimicrobial activity if C. acnes growth was inhibited by more than 50% at a given concentration) | Category of in vitro test antimicrobial activity against C. acnes: No AMP

RISSLLKRLAIKIK [AMP-16]
Concentration with antimicrobial activity >50%: 25 µg/mL | Antimicrobial activity > 50% against C. acnes (at 25 µg/mL): Inhibit (A peptide was deemed to have antimicrobial activity if C. acnes growth was inhibited by more than 50% at a given concentration) | Antimicrobial activity > 50% against C. acnes (at 50 µg/mL): Inhibit (A peptide was deemed to have antimicrobial activity if C. acnes growth was inhibited by more than 50% at a given concentration) | Antimicrobial activity > 50% against C. acnes (at 100 µg/mL): Inhibit (A peptide was deemed to have antimicrobial activity if C. acnes growth was inhibited by more than 50% at a given concentration) | Category of in vitro test antimicrobial activity against C. acnes: Medium AMP

SKILGKLTKAAKIAW [AMP-28]
Concentration with antimicrobial activity >50%: no | Antimicrobial activity > 50% against C. acnes (at 25 µg/mL): No (A peptide was deemed to have antimicrobial activity if C. acnes growth was inhibited by more than 50% at a given concentration) | Antimicrobial activity > 50% against C. acnes (at 50 µg/mL): No (A peptide was deemed to have antimicrobial activity if C. acnes growth was inhibited by more than 50% at a given concentration) | Antimicrobial activity > 50% against C. acnes (at 100 µg/mL): No (A peptide was deemed to have antimicrobial activity if C. acnes growth was inhibited by more than 50% at a given concentration) | Category of in vitro test antimicrobial activity against C. acnes: No AMP

VKRILKWAFK [AMP-1]
Antimicrobial activity > 50% against C. acnes (at 25 µg/mL): No (A peptide was deemed to have antimicrobial activity if C. acnes growth was inhibited by more than 50% at a given concentration) | Antimicrobial activity > 50% against C. acnes (at 50 µg/mL): Inhibit (A peptide was deemed to have antimicrobial activity if C. acnes growth was inhibited by more than 50% at a given concentration) | Antimicrobial activity > 50% against C. acnes (at 100 µg/mL): Inhibit (A peptide was deemed to have antimicrobial activity if C. acnes growth was inhibited by more than 50% at a given concentration) | Category of in vitro test antimicrobial activity against C. acnes: Medium AMP

VKRLKKAFKKLARLV [AMP-32]
Antimicrobial activity > 50% against C. acnes (at 25 µg/mL): No (A peptide was deemed to have antimicrobial activity if C. acnes growth was inhibited by more than 50% at a given concentration) | Antimicrobial activity > 50% against C. acnes (at 50 µg/mL): Inhibit (A peptide was deemed to have antimicrobial activity if C. acnes growth was inhibited by more than 50% at a given concentration) | Antimicrobial activity > 50% against C. acnes (at 100 µg/mL): Inhibit (A peptide was deemed to have antimicrobial activity if C. acnes growth was inhibited by more than 50% at a given concentration) | Category of in vitro test antimicrobial activity against C. acnes: Medium AMP

WFKAIPQAISALKKI [AMP-26]
Concentration with antimicrobial activity >50%: 100 µg/mL | Antimicrobial activity > 50% against C. acnes (at 25 µg/mL): No (A peptide was deemed to have antimicrobial activity if C. acnes growth was inhibited by more than 50% at a given concentration) | Antimicrobial activity > 50% against C. acnes (at 50 µg/mL): No (A peptide was deemed to have antimicrobial activity if C. acnes growth was inhibited by more than 50% at a given concentration) | Antimicrobial activity > 50% against C. acnes (at 100 µg/mL): Inhibit (A peptide was deemed to have antimicrobial activity if C. acnes growth was inhibited by more than 50% at a given concentration) | Category of in vitro test antimicrobial activity against C. acnes: Weak AMP
